The values below come from publication PMC12197678, “Cvill6 and Cvill7: Potent and Selective Peptide Blockers of Kv1.2 Ion Channel Isolated from Mexican Scorpion Centruroides villegasi” (Toxins, 2025).

The subject of the assay is hKCa2.2 (SK2). Description: Whole-cell patch-clamp, hKCa2.2 current in transfected CHO cells. The assay is classed as cell-based, human. As to conditions: 100 nM; ~3 min. The text has this:
The scorpion toxins from the α-KTx 2 family also modulate the function of Ca^2+-activated potassium channels, in addition to Kv1 channels. Therefore, we investigated the activity of Cvill6 and Cvill7 toxins on three different types of Ca^2+-activated K^+ channels: (1) hKCa2.2 (SK2), the small-conductance Ca^2+-activated channel; (2) hKCa3.1 (IKCa1, SK4), the intermediate-conductance Ca^2+-activated channels, mainly expressed in T lymphocytes; and (3) mKCa1.1 (BK or MaxiK), the large-conductance voltage- and Ca^2+- activated channel of mice. […] The quantity of native toxins was insufficient to conduct the full dose–response curves at this high concentration range (see above).
Chinese hamster ovary (CHO) cells (generously provided by Yosef Yarden, Weizmann Institute of Science, Rehovot, Israel) or human embryonic kidney (HEK293) cells were cultured and maintained in Dulbecco’s modified Eagle medium (DMEM, Thermo Fisher Scientific, Waltham, MA, USA) supplemented with 2 mM L-glutamine, 10% fetal bovine serum (FBS), 100 µg/mL streptomycin, and 100 U/mL penicillin-g (Sigma-Aldrich, Budapest, Hungary) following standard culturing conditions. […] Cells expressing GFP were identified using a Nikon TE 2000U fluorescence microscope (Nikon, Tokyo, Japan) with bandpass filters set to 455–495 nm for excitation and 515–555 nm for emission. […]
(In general: In patch-clamp work, channel activity is measured electrically.)

Positions of bridges follow the written chain, without caps; N, C: chain ends. Residues, ends and D or L forms follow the SMILES beside them.

On to `CC[C@H](C)[C@H](N)C(=O)N[C@@H](Cc1ccccc1)C(=O)N[C@H](C(=O)N[C@@H](CC(N)=O)C(=O)N[C@H](C(=O)N[C@@H](CCCCN)C(=O)N[C@H]1CSSC[C@@H]2NC(=O)[C@H](CCCCN)NC(=O)CNC(=O)CNC(=O)[C@H](C)NC(=O)[C@H](Cc3c[nH]cn3)NC(=O)[C@H](CCC(N)=O)NC(=O)CNC(=O)[C@H](Cc3ccccc3)NC(=O)[C@H](CCCNC(=N)N)NC(=O)[C@H](CC(=O)O)NC(=O)[C@H](CCCCN)NC(=O)[C@@H]3CSSC[C@@H](C(=O)N[C@@H](Cc4ccc(O)cc4)C(=O)N4CCC[C@H]4C(=O)O)NC(=O)[C@H](CCCCN)NC(=O)[C@H](CSSC[C@H](NC(=O)[C@H](CCC(N)=O)NC(=O)[C@H](CCC(N)=O)NC(=O)[C@@H]4CCCN4C(=O)[C@H](CC(C)C)NC(=O)[C@H](CC(=O)O)NC1=O)C(=O)N[C@@H](CC(C)C)C(=O)N[C@@H](CCCNC(=N)N)C(=O)N1CCC[C@H]1C(=O)N3)NC(=O)[C@H](CCCCN)NC(=O)CNC(=O)[C@H](CC(N)=O)NC(=O)[C@H]([C@@H](C)CC)NC2=O)C(C)C)[C@@H](C)CC` [Cvill6] (H-IFINVKCDLPQQCLRPCKDRFGQHAGGKCINGKCKCYP-OH; disulfide 7-29, 13-34, 17-36 (inferred); N-terminus and C-terminus assumed), for which the “effect on KCa2.2 current” value is “Neither Cvill6 nor Cvill7 showed any effect”.

As to `CC[C@H](C)[C@H](NC(=O)[C@H](Cc1ccccc1)NC(=O)[C@@H](N)[C@@H](C)O)C(=O)N[C@@H](CC(N)=O)C(=O)N[C@H](C(=O)N[C@@H](CCCCN)C(=O)N[C@H]1CSSC[C@@H]2NC(=O)[C@H](CCCCN)NC(=O)CNC(=O)CNC(=O)[C@H](C)NC(=O)[C@H](Cc3c[nH]cn3)NC(=O)[C@@H]3CCCN3C(=O)CNC(=O)[C@H](Cc3ccc(O)cc3)NC(=O)[C@H](CC(C)C)NC(=O)[C@H](CC(=O)O)NC(=O)[C@H](CCCCN)NC(=O)[C@@H]3CSSC[C@@H](C(=O)N[C@@H](Cc4ccc(O)cc4)C(=O)N[C@@H](CC(N)=O)C(=O)N[C@@H](CC(N)=O)C(N)=O)NC(=O)[C@H](CCCCN)NC(=O)[C@H](CSSC[C@H](NC(=O)[C@H](CCC(N)=O)NC(=O)[C@H](CCCCN)NC(=O)[C@@H]4CCCN4C(=O)[C@H](CO)NC(=O)[C@H]([C@@H](C)O)NC1=O)C(=O)N[C@@H](CC(C)C)C(=O)N[C@@H](CCCCN)C(=O)N1CCC[C@H]1C(=O)N3)NC(=O)[C@H](CCCCN)NC(=O)CNC(=O)[C@H](CC(N)=O)NC(=O)[C@H](CCSC)NC2=O)C(C)C` [Cvill7] (H-TFINVKCTSPKQCLKPCKDLYGPHAGGKCMNGKCKCYNN-NH2; disulfide 7-29, 13-34, 17-36; N-terminus and C-terminus assumed), the “effect on KCa2.2 current” value is recorded as “Neither Cvill6 nor Cvill7 showed any effect”.
